Test results published in patent US9924714B2, “Impregnatable matrix of plant, animal or synthetic origin or mixtures of same, containing a uniformly distributed antimicrobial compound, method for impregnating said matrix with a compound, and use thereof in the production of antimicrobial elements” (COMPAÑIA MINERA SAN GERONIMO, priority 2013, dated 2018).

Tests used:
Assay type in all cases: cell-based
[1] = test system: Staphylococcus aureus ATCC25923; test: Disc growth inhibition halo test (Example 2)
[2] = test system: Staphylococcus epidermidis ATCC25923; test: Disc growth inhibition halo test (Example 2)
[3] = test system: Streptococcus pneumoniae ATCC14325; test: Disc growth inhibition halo test (Example 2)
[4] = test system: Streptococcus pyogenes ATCC2367; test: Disc growth inhibition halo test (Example 2)
[5] = test system: Enterococcus faecium ISP133/04; test: Disc growth inhibition halo test (Example 2)
[6] = test system: Enterococcus faecalis ATCC29212; test: Disc growth inhibition halo test (Example 2)
[7] = test system: Escherichia coli ATCC25922; test: Disc growth inhibition halo test (Example 2)
[8] = test system: Klebsiella pneumoniae ATCC4352; test: Disc growth inhibition halo test (Example 2)
[9] = test system: Pseudomonas aeruginosa PAOI; test: Disc growth inhibition halo test (Example 2)
[10] = test system: Acinetobacter baumanii UDP456; test: Disc growth inhibition halo test (Example 2)
[11] = test system: Citrobacter freundii ISP1949/99; test: Disc growth inhibition halo test (Example 2)
[12] = test system: Enterobacter aerogenes ATCC13048; test: Disc growth inhibition halo test (Example 2)
12 bacterial strains = test: Antibacterial activity of four copper compounds, summary (Example 2); conditions: discs 200-800 μg, summary in words

SMILES: O=P([O-])([O-])[O-].[Cu+2].[Cu+2].[OH-] [Copper hydroxyphosphate compound (II), copper hydroxyphosphate (II)]
- Growth inhibition zone ([1]; 200 μg on 5 mm disc): 5.0 mm
- Growth inhibition zone ([1]; 400 μg on 5 mm disc): 5.0 mm
- Growth inhibition zone ([1]; 600 μg on 5 mm disc): 5.0 mm
- Growth inhibition zone ([1]; 800 μg on 5 mm disc): 5.0 mm
- Growth inhibition zone ([2]; 200 μg on 5 mm disc): 5.0 mm
- Growth inhibition zone ([2]; 400 μg on 5 mm disc): 5.0 mm
- Growth inhibition zone ([2]; 600 μg on 5 mm disc): 5.6 ± 0.5 mm
- Growth inhibition zone ([2]; 800 μg on 5 mm disc): 6.3 ± 1.1 mm
- Growth inhibition zone ([3]; 200 μg on 5 mm disc): 5.0 mm
- Growth inhibition zone ([3]; 400 μg on 5 mm disc): 5.0 mm
- Growth inhibition zone ([3]; 600 μg on 5 mm disc): 5.0 mm
- Growth inhibition zone ([3]; 800 μg on 5 mm disc): 5.0 mm
- Growth inhibition zone ([4]; 200 μg on 5 mm disc): 5.0 mm
- Growth inhibition zone ([4]; 400 μg on 5 mm disc): 5.0 mm
- Growth inhibition zone ([4]; 600 μg on 5 mm disc): 5.0 mm
- Growth inhibition zone ([4]; 800 μg on 5 mm disc): 8.6 ± 0.6 mm
- Growth inhibition zone ([5]; 200 μg on 5 mm disc): 5.0 mm
- Growth inhibition zone ([5]; 400 μg on 5 mm disc): 5.0 mm
- Growth inhibition zone ([5]; 600 μg on 5 mm disc): 5.0 mm
- Growth inhibition zone ([5]; 800 μg on 5 mm disc): 5.0 mm
- Growth inhibition zone ([6]; 200 μg on 5 mm disc): 5.0 mm
- Growth inhibition zone ([6]; 400 μg on 5 mm disc): 5.0 mm
- Growth inhibition zone ([6]; 600 μg on 5 mm disc): 5.0 mm
- Growth inhibition zone ([6]; 800 μg on 5 mm disc): 5.0 mm
- Growth inhibition zone ([7]; 200 μg on 5 mm disc): 5.0 mm
- Growth inhibition zone ([7]; 400 μg on 5 mm disc): 5.0 mm
- Growth inhibition zone ([7]; 600 μg on 5 mm disc): 5.0 mm
- Growth inhibition zone ([7]; 800 μg on 5 mm disc): 5.0 mm
- Growth inhibition zone ([8]; 200 μg on 5 mm disc): 5.0 mm
- Growth inhibition zone ([8]; 400 μg on 5 mm disc): 5.0 mm
- Growth inhibition zone ([8]; 600 μg on 5 mm disc): 5.0 mm
- Growth inhibition zone ([8]; 800 μg on 5 mm disc): 5.0 mm
- Growth inhibition zone ([9]; 200 μg on 5 mm disc): 5.0 mm
- Growth inhibition zone ([9]; 400 μg on 5 mm disc): 5.0 mm
- Growth inhibition zone ([9]; 600 μg on 5 mm disc): 5.0 mm
- Growth inhibition zone ([9]; 800 μg on 5 mm disc): 5.0 mm
- Growth inhibition zone ([10]; 200 μg on 5 mm disc): 5.0 mm
- Growth inhibition zone ([10]; 400 μg on 5 mm disc): 8.6 ± 0.6 mm
- Growth inhibition zone ([10]; 600 μg on 5 mm disc): 7.3 ± 2 mm
- Growth inhibition zone ([10]; 800 μg on 5 mm disc): 7.6 ± 2.3 mm
- Growth inhibition zone ([11]; 200 μg on 5 mm disc): 5.0 mm
- Growth inhibition zone ([11]; 400 μg on 5 mm disc): 5.0 mm
- Growth inhibition zone ([11]; 600 μg on 5 mm disc): 5.0 mm
- Growth inhibition zone ([11]; 800 μg on 5 mm disc): 5.0 mm
- Growth inhibition zone ([12]; 200 μg on 5 mm disc): 5.0 mm
- Growth inhibition zone ([12]; 400 μg on 5 mm disc): 5.0 mm
- Growth inhibition zone ([12]; 600 μg on 5 mm disc): 5.0 mm
- Growth inhibition zone ([12]; 800 μg on 5 mm disc): 5.0 mm

SMILES: [Cl-].[Cu+2].[Cu+2].[OH-].[OH-].[OH-] [copper oxychloride compound (II), copper oxychloride (II)]
- Growth inhibition zone ([1]; 200 μg on 5 mm disc): 6.0 ± 1.0 mm
- Growth inhibition zone ([1]; 400 μg on 5 mm disc): 10.3 ± 0.6 mm
- Growth inhibition zone ([1]; 600 μg on 5 mm disc): 11.7 ± 0.6 mm
- Growth inhibition zone ([1]; 800 μg on 5 mm disc): 14.0 ± 1.0 mm
- Growth inhibition zone ([2]; 200 μg on 5 mm disc): 12.0 ± 0.6 mm
- Growth inhibition zone ([2]; 400 μg on 5 mm disc): 14.3 ± 0.6 mm
- Growth inhibition zone ([2]; 600 μg on 5 mm disc): 13.7 ± 1.5 mm
- Growth inhibition zone ([2]; 800 μg on 5 mm disc): 14.6 ± 0.6 mm
- Growth inhibition zone ([3]; 200 μg on 5 mm disc): 5.0 ± 1.0 mm
- Growth inhibition zone ([3]; 400 μg on 5 mm disc): 8.0 ± 0.7 mm
- Growth inhibition zone ([3]; 600 μg on 5 mm disc): 9.0 ± 1.0 mm
- Growth inhibition zone ([3]; 800 μg on 5 mm disc): 11.0 ± 1.2 mm
- Growth inhibition zone ([4]; 200 μg on 5 mm disc): 5.0 ± 1.0 mm
- Growth inhibition zone ([4]; 400 μg on 5 mm disc): 6.0 ± 1.0 mm
- Growth inhibition zone ([4]; 600 μg on 5 mm disc): 7.0 ± 1.2 mm
- Growth inhibition zone ([4]; 800 μg on 5 mm disc): 8.0 ± 1.4 mm
- Growth inhibition zone ([5]; 200 μg on 5 mm disc): 6.0 ± 1.0 mm
- Growth inhibition zone ([5]; 400 μg on 5 mm disc): 6.0 ± 1.0 mm
- Growth inhibition zone ([5]; 600 μg on 5 mm disc): 6.0 ± 1.0 mm
- Growth inhibition zone ([5]; 800 μg on 5 mm disc): 6.0 ± 1.0 mm
- Growth inhibition zone ([6]; 200 μg on 5 mm disc): 6.0 ± 1.0 mm
- Growth inhibition zone ([6]; 400 μg on 5 mm disc): 6.0 ± 1.0 mm
- Growth inhibition zone ([6]; 600 μg on 5 mm disc): 6.0 ± 1.0 mm
- Growth inhibition zone ([6]; 800 μg on 5 mm disc): 6.0 ± 1.0 mm
- Growth inhibition zone ([7]; 200 μg on 5 mm disc): 13.3 ± 1.4 mm
- Growth inhibition zone ([7]; 400 μg on 5 mm disc): 13.0 ± 0.7 mm
- Growth inhibition zone ([7]; 600 μg on 5 mm disc): 15.0 ± 0.7 mm
- Growth inhibition zone ([7]; 800 μg on 5 mm disc): 13.3 ± 0.7 mm
- Growth inhibition zone ([8]; 200 μg on 5 mm disc): 7.3 ± 0.6 mm
- Growth inhibition zone ([8]; 400 μg on 5 mm disc): 8.7 ± 0.6 mm
- Growth inhibition zone ([8]; 600 μg on 5 mm disc): 9.7 ± 0.6 mm
- Growth inhibition zone ([8]; 800 μg on 5 mm disc): 10.0 mm
- Growth inhibition zone ([9]; 200 μg on 5 mm disc): 6.3 ± 1.5 mm
- Growth inhibition zone ([9]; 400 μg on 5 mm disc): 6.7 ± 1.2 mm
- Growth inhibition zone ([9]; 600 μg on 5 mm disc): 8.3 ± 0.6 mm
- Growth inhibition zone ([9]; 800 μg on 5 mm disc): 3.3 ± 1.7 mm
- Growth inhibition zone ([10]; 200 μg on 5 mm disc): 11.7 ± 0.6 mm
- Growth inhibition zone ([10]; 400 μg on 5 mm disc): 15.7 ± 0.6 mm
- Growth inhibition zone ([10]; 600 μg on 5 mm disc): 17.0 ± 1.0 mm
- Growth inhibition zone ([10]; 800 μg on 5 mm disc): 19.7 ± 0.6 mm
- Growth inhibition zone ([11]; 200 μg on 5 mm disc): 8.0 ± 1.0 mm
- Growth inhibition zone ([11]; 400 μg on 5 mm disc): 10.7 ± 1.5 mm
- Growth inhibition zone ([11]; 600 μg on 5 mm disc): 11.3 ± 0.6 mm
- Growth inhibition zone ([11]; 800 μg on 5 mm disc): 11.3 ± 1.5 mm
- Growth inhibition zone ([12]; 200 μg on 5 mm disc): 7.3 ± 1.5 mm
- Growth inhibition zone ([12]; 400 μg on 5 mm disc): 3.7 ± 1.5 mm
- Growth inhibition zone ([12]; 600 μg on 5 mm disc): 9.7 ± 0.6 mm
- Growth inhibition zone ([12]; 800 μg on 5 mm disc): 9.7 ± 1.5 mm
- antibacterial activity (12 bacterial strains): antibacterial activity against Staphylococcus aureus, Staphylococcus epidermidis, Streptococcus pyogenes, Escherichia coli and Acinetobacter baumannii
